The values that follow come from PubChem BioAssay (NCI).

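Where inhibition never reached the appropriate level, the endpoint shown equals the highest concentration tested. Otherwise, values were interpolated linearly from a five-concentration, 48-hour dose response in 96-well plates. GI50 marks 50% less growth. TGI marks complete inhibition of growth.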

Test systems include M14 melanoma; MCF7 breast; MOLT-4 leukemia; NCI/ADR-RES ovarian; OVCAR-8 ovarian; RPMI-8226 leukemia; SK-OV-3 ovarian; SN12C renal.
Common to all, as to assay: NCI tumour cell line growth inhibition, 48 h

For the molecule `O=C(/C=C\c1ccc(NCc2ccc(C(=O)O)cc2)cc1)CCl`, the GI50 in the experiment on M14 melanoma was 15 µM; with MCF7 breast, 4.26 µM; in the experiment with MOLT-4 leukemia, 4.45 µM; with NCI/ADR-RES ovarian, 17.8 µM; in the experiment with OVCAR-8 ovarian, 6.98 µM; in the experiment on RPMI-8226 leukemia it was 9.07 µM. For the same molecule, the figures for the GI50 with SK-OV-3 ovarian and in the experiment with SN12C renal were 15.1 µM and 11.2 µM, respectively. The TGI in the experiment on M14 melanoma was 35.3 µM; in the experiment with MCF7 breast, 17.7 µM; in the experiment with MOLT-4 leukemia it was 26.4 µM; in the experiment on NCI/ADR-RES ovarian it was 39.6 µM; in the experiment with OVCAR-8 ovarian it was 19.9 µM; in the experiment with RPMI-8226 leukemia, 35.3 µM. Further, the values for the TGI in the experiment on SK-OV-3 ovarian and in the experiment with SN12C renal were 28.8 µM and 23.7 µM, respectively.
Consider `Cc1ccc(-c2nc3ccc(Cl)cc3c(=O)n2N2C(=O)CSC2c2ccccc2Cl)cc1` (stereo not given), for which the GI50 in the experiment with M14 melanoma is 56.2 µM; in the experiment on MCF7 breast, 26.9 µM; with MOLT-4 leukemia, > 100 µM; in the experiment on NCI/ADR-RES ovarian it was 8.87 µM; in the experiment on OVCAR-8 ovarian it was 4.58 µM; in the experiment on RPMI-8226 leukemia, > 100 µM. The GI50 with SK-OV-3 ovarian was 2.89 µM; in the experiment with SN12C renal, 11.8 µM. In addition, the TGI in the experiment on M14 melanoma, with MCF7 breast, in the experiment with MOLT-4 leukemia, in the experiment with NCI/ADR-RES ovarian, in the experiment on OVCAR-8 ovarian and in the experiment on RPMI-8226 leukemia was > 100 µM throughout. Besides, the TGI is 9.9 µM in the experiment with SK-OV-3 ovarian and > 100 µM with SN12C renal.
As to `C[C@]12CC[C@@H]3c4cc(OCC(F)(F)F)c(O)cc4/C(=N/O)C[C@H]3[C@@H]1CC[C@@H]2O`, the GI50 with M14 melanoma was 0.0513 µM; with MOLT-4 leukemia, 0.0575 µM; in the experiment on NCI/ADR-RES ovarian it was 0.0392 µM; with OVCAR-8 ovarian, 0.0808 µM; in the experiment on RPMI-8226 leukemia it was 0.0584 µM. Moreover, the TGI in the experiment on M14 melanoma was determined as 16.9 µM; in the experiment on MCF7 breast, 33.9 µM; in the experiment on NCI/ADR-RES ovarian it was 2.49 µM; in the experiment with OVCAR-8 ovarian, 15.5 µM; in the experiment on RPMI-8226 leukemia, 2.33 µM; in the experiment with SK-OV-3 ovarian, 0.439 µM. Also, the TGI in the experiment on SN12C renal amounted to 48.3 µM.
In the case of `CCSc1nc(SCC)c2cn[nH]c2n1`, the GI50 in the experiment on M14 melanoma was > 100 µM; in the experiment with MCF7 breast, 26.5 µM; with MOLT-4 leukemia it was > 100 µM; in the experiment with NCI/ADR-RES ovarian, > 100 µM; in the experiment with OVCAR-8 ovarian it was 62.7 µM; with RPMI-8226 leukemia, 40.2 µM. In addition, the GI50 with SK-OV-3 ovarian is 39 µM; in the experiment with SN12C renal it was 47.7 µM. Besides, the TGI with M14 melanoma, with MCF7 breast, in the experiment with MOLT-4 leukemia, with NCI/ADR-RES ovarian, in the experiment on OVCAR-8 ovarian and with RPMI-8226 leukemia was > 100 µM throughout. Besides, the TGI in the experiment with SK-OV-3 ovarian and with SN12C renal was > 100 µM in each case.
Consider `COc1cc(/C=C/c2ccc(OC)c(OC)c2)cc(OC)c1`, for which the TGI is 67.9 µM in the experiment with M14 melanoma; > 100 µM in the experiment on MCF7 breast; > 100 µM in the experiment on MOLT-4 leukemia; 60 µM in the experiment on NCI/ADR-RES ovarian; > 100 µM with OVCAR-8 ovarian; > 100 µM in the experiment on RPMI-8226 leukemia. Moreover, the TGI in the experiment on SK-OV-3 ovarian is > 100 µM; with SN12C renal, 96.6 µM.
With `CC(C)C[C@H](NC(=O)/C=C/Cn1ccc2ccccc2c1=O)B(O)O`, the GI50 in the experiment on M14 melanoma is 2.92 µM; in the experiment with MCF7 breast, 5.33 µM; in the experiment with MOLT-4 leukemia, 2.73 µM; in the experiment with NCI/ADR-RES ovarian it was 90.8 µM; in the experiment with OVCAR-8 ovarian, 14.2 µM; with RPMI-8226 leukemia, 0.845 µM. Also, the GI50 with SK-OV-3 ovarian was 10.5 µM; in the experiment on SN12C renal, 6.32 µM. Also, the TGI was 10.1 µM in the experiment on M14 melanoma; > 100 µM in the experiment with MCF7 breast; 12.5 µM in the experiment on MOLT-4 leukemia; > 100 µM in the experiment on NCI/ADR-RES ovarian; 55.5 µM in the experiment on OVCAR-8 ovarian; > 100 µM in the experiment on RPMI-8226 leukemia. Besides, the TGI in the experiment with SK-OV-3 ovarian is 92.2 µM; in the experiment on SN12C renal it was > 100 µM.
On to `C=C1CCC(CC[C@@H]2CC[C@]3(OC2)O[C@@]2(O)CC[C@]3(C)OC2(C)C)C(C)(C)[C@H]1C/C=C1/C(=O)OC[C@@H]1O` (stereo not given in full), for which the TGI in the experiment with M14 melanoma was 12.3 µM; in the experiment with MCF7 breast, 2.94 µM; in the experiment with MOLT-4 leukemia, 5.45 µM; in the experiment with NCI/ADR-RES ovarian, 6.92 µM; in the experiment with OVCAR-8 ovarian, 5.04 µM; in the experiment with RPMI-8226 leukemia, > 25.1 µM. Besides, the TGI in the experiment with SK-OV-3 ovarian is 16.6 µM; with SN12C renal, 8.03 µM.
Regarding `O=S(=O)(Nc1cc(Sc2cccc3cccnc23)c(O)c2ccccc12)c1ccccc1`, the GI50 with M14 melanoma is 1.12 µM; in the experiment on MCF7 breast, 0.52 µM; in the experiment with MOLT-4 leukemia, 0.546 µM; in the experiment on NCI/ADR-RES ovarian it was 0.931 µM; with OVCAR-8 ovarian, 0.631 µM; in the experiment with RPMI-8226 leukemia, 2.38 µM. Moreover, the results for the GI50 in the experiment with SK-OV-3 ovarian and with SN12C renal were 4.3 µM and 0.798 µM, respectively. In addition, the TGI with M14 melanoma is 9.2 µM; with MCF7 breast, 2.85 µM; in the experiment on MOLT-4 leukemia it was 5.53 µM; with NCI/ADR-RES ovarian, 11 µM; in the experiment with OVCAR-8 ovarian, > 100 µM; with RPMI-8226 leukemia it was 7.9 µM. In addition, the TGI in the experiment with SK-OV-3 ovarian worked out at 17.9 µM; with SN12C renal it was 3.6 µM.
Regarding `Cc1ncc(CCCN(C)C)cc1Nc1ncc2c(n1)-c1ccc(C(F)(F)F)cc1NC(=S)C2`, the GI50 in the experiment with M14 melanoma is < 0.016 µM; in the experiment on MCF7 breast it was < 0.0155 µM; with MOLT-4 leukemia, < 0.0156 µM; with NCI/ADR-RES ovarian it was 0.172 µM; with OVCAR-8 ovarian, < 0.0179 µM; in the experiment on RPMI-8226 leukemia, 0.0434 µM. Moreover, the values for the GI50 in the experiment with SK-OV-3 ovarian and in the experiment on SN12C renal were < 0.0155 µM and 0.0952 µM, respectively. In addition, the TGI was 15.7 µM in the experiment on M14 melanoma; 11.2 µM in the experiment with MCF7 breast; 16.6 µM in the experiment on MOLT-4 leukemia; > 67.7 µM with NCI/ADR-RES ovarian; 23.1 µM in the experiment on OVCAR-8 ovarian; 21.1 µM in the experiment on RPMI-8226 leukemia. Besides, the TGI in the experiment with SK-OV-3 ovarian stood at 0.448 µM; in the experiment with SN12C renal, 18.4 µM.
Turning to `COc1ccc(C(=O)COc2ccc(/C=C3\COc4ccc(OC)cc4C3=O)cc2)cc1`, the GI50 in the experiment with M14 melanoma was 39.7 µM; with MCF7 breast it was 3.1 µM; in the experiment on MOLT-4 leukemia, 9.36 µM; with NCI/ADR-RES ovarian it was 12 µM; in the experiment with OVCAR-8 ovarian it was 18.4 µM; in the experiment on RPMI-8226 leukemia, 3.47 µM. In addition, the GI50 was 30.6 µM with SK-OV-3 ovarian and 30.9 µM with SN12C renal. The TGI is > 100 µM with M14 melanoma; 18.6 µM in the experiment with MCF7 breast; 51.6 µM with MOLT-4 leukemia; 32.3 µM in the experiment with NCI/ADR-RES ovarian; 66.5 µM in the experiment on OVCAR-8 ovarian; 22.6 µM in the experiment on RPMI-8226 leukemia. The TGI in the experiment with SK-OV-3 ovarian is 81 µM; with SN12C renal, > 100 µM.
